Biological target: T1, Inhibitor of nuclear factor kappa-B kinase subunit beta (Homo sapiens, UniProt O14920)
T1 sequence (O14920 whole entry): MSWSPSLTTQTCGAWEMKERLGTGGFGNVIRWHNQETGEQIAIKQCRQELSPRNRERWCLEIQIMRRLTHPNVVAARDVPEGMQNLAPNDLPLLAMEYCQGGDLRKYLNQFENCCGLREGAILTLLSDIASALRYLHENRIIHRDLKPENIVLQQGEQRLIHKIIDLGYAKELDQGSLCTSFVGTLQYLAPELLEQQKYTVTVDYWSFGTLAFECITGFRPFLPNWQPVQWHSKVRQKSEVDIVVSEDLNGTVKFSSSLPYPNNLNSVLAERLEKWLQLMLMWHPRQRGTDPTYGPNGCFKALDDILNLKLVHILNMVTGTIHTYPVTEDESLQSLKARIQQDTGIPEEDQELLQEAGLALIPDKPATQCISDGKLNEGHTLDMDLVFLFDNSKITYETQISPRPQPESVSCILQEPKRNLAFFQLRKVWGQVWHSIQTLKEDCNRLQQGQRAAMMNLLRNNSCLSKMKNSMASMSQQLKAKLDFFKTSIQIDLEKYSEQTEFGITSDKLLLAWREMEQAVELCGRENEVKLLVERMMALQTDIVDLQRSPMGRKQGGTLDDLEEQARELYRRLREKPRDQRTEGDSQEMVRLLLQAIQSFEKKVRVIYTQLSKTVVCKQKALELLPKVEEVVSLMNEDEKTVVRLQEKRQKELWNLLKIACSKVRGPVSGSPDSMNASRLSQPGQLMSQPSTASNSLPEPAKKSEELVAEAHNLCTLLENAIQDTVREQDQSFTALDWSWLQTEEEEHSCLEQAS
Experiment: ChEBML_1690031
Method: Inhibition of recombinant full length human IKKbeta expressed in baculovirus infected sf9 insect cells using biotinylated IkBalpha as substrate after 60 mins by DELFIA

Ki: > 30 µM
Compound: N#Cc1c[nH]c2nc(N)nc(N[C@@H]3CC[C@@H](O)[C@H]3O)c12
